Results as given in patent US12606528B2, “Methods and materials for inhibiting NF-kB activity” (University of Pittsburgh - Of the Commonwealth System of …, priority 2019, dated 2026).
Read-outs that look alike come from different tables or passages of the source.

Assays:
NF-κB = NF-κB assay: THP1-NF-κB-LUC cells, LPS-stimulated secreted luciferase; format: cell-based; conditions: THP1-NF-κB-LUC cells, read-out: IC50 (NF-κB assay)
Summary of the method: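 THP1-NF-κB-LUC cells (25k/well) were pretreated with compounds for 2 h, then stimulated with LPS (10 ng/mL) for 18 h. Secreted luciferase was measured and normalized to vehicle, and IC50 was fitted from the concentration series.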

TNF release = test: TNF assay: TNF release from LPS-stimulated human PBMCs (TNF ELISA); format: cell-based; conditions: PBMC, read-out: IC50 (TNF assay)
Summary of the method: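 Human PBMCs at 10k/well pretreated with compound dilutions 2 h, then stimulated with LPS (10 ng/mL) for 18 h. TNF in supernatants quantified by ELISA; IC50 for inhibition of TNF release fitted from concentration–response.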

[1] = LPS-stimulated human PBMCs, TNF ELISA
[2] = compounds 2 hours before LPS (10 ng/mL) for 18 hours, secreted luciferase
[3] = human PBMCs, compounds 2 hours before LPS (10 ng/ml) for 18 hours, supernatant TNF ELISA

SMILES | IC50 (NF-κB; LPS-stimulated) [nM] | IC50 (TNF release; [1]) [nM] | IC50 (NF-κB; [2]) [nM] | IC50 (TNF release; [3]) [nM]
CC(C)[S+]([O-])c1[nH]c(-c2ccccc2)nc1S(=O)(=O)c1ccc(F)cc1 (stereo not shown) [BC19523] | 1000 to 10000 | > 10000 | – | –
O=S(=O)(CC1CC1)c1sc(-c2ccccc2)nc1S(=O)(=O)c1ccc(Cl)cc1 [BC19525] | 1000 to 10000 | 1000 to 10000 | – | –
COCC[S+]([O-])c1sc(-c2ccccc2)nc1S(=O)(=O)c1ccc(Cl)cc1 (stereo not shown) [BC19526] | 1000 to 10000 | 1000 to 10000 | – | –
COCCS(=O)(=O)c1sc(-c2cccc(F)c2)nc1S(=O)(=O)c1ccc(Cl)cc1 [BC19527] | 1000 to 10000 | 1000 to 10000 | – | –
O=S(=O)(CC1CC1)c1sc(-c2ccc(Cl)cc2)nc1S(=O)(=O)c1ccc(Cl)cc1 [BC19530] | 1000 to 10000 | 1000 to 10000 | – | –
CCC[S+]([O-])c1sc(-c2cccc(F)c2)nc1S(=O)(=O)c1ccc(Cl)cc1 (stereo not shown) [BC19531] | 1000 to 10000 | 100 to 1000 | – | –
O=S(=O)(c1ccc(Cl)cc1)c1nc(-c2cccc(F)c2)sc1[S+]([O-])C1CCCCC1 (stereo not shown) [BC19532] | > 10000 | > 10000 | – | –
CS(=O)(=O)c1sc(-c2ccc(Cl)cc2)nc1S(=O)(=O)c1ccc(F)cc1 [BC19534] | 1000 to 10000 | 1000 to 10000 | – | –
CCC[S+]([O-])c1sc(-c2ccc(Cl)cc2)nc1S(=O)(=O)c1ccc(F)cc1 (stereo not shown) [BC19535] | 1000 to 10000 | 1000 to 10000 | – | –
CCCS(=O)(=O)c1sc(-c2ccc(Cl)cc2)nc1S(=O)(=O)c1ccc(F)cc1 [BC19536] | 1000 to 10000 | 100 to 1000 | – | –
CC(C)[S+]([O-])c1sc(-c2ccc(Cl)cc2)nc1S(=O)(=O)c1ccc(F)cc1 (stereo not shown) [BC19537] | > 10000 | > 10000 | – | –
CC(C)S(=O)(=O)c1sc(-c2ccc(Cl)cc2)nc1S(=O)(=O)c1ccc(F)cc1 [BC19538] | 1000 to 10000 | 1000 to 10000 | – | –
O=S(=O)(CC1CC1)c1sc(-c2ccc(Cl)cc2)nc1S(=O)(=O)c1ccc(F)cc1 [BC19539] | 1000 to 10000 | 1000 to 10000 | – | –
COCC[S+]([O-])c1sc(-c2ccc(Cl)cc2)nc1S(=O)(=O)c1ccc(F)cc1 (stereo not shown) [BC19540] | 1000 to 10000 | 1000 to 10000 | – | –
O=S1(=O)CCn2c(-c3ccccc3)nc(S(=O)(=O)c3ccc(F)cc3)c21 [BC19542] | > 10000 | > 10000 | – | –
CCS(=O)(=O)c1cc2c(c(S(=O)(=O)Nc3ccc(C)c(Cl)c3)c1)OCC(=O)N2 [BC19544] | – | – | < 100 | > 10000
CCS(=O)(=O)c1cc2c(c(S(=O)(=O)Nc3ccc(F)cc3F)c1)OCC(=O)N2 [BC19545] | – | – | < 100 | > 10000
CCS(=O)(=O)c1cc2c(c(S(=O)(=O)Nc3ccc(C)cc3)c1)OCC(=O)N2 [BC19546] | – | – | < 100 | > 10000
CCS(=O)(=O)c1cc2c(c(S(=O)(=O)Nc3ccc(C#N)cc3)c1)OCC(=O)N2 [BC19548] | – | – | < 100 | > 10000
O=C1NCCOc2c1cc(Br)cc2S(=O)(=O)Nc1ccc(OC(F)(F)F)cc1 [BC19550] | < 100 | > 10000 | – | –
O=C1NCCOc2c1cc(Br)cc2S(=O)(=O)Nc1ccc(F)c(F)c1 [BC19551] | 100 to 1000 | > 10000 | – | –
Cc1ccc(NS(=O)(=O)c2cc(Br)cc3c2OCCNC3=O)cc1F [BC19552] | 100 to 1000 | > 10000 | – | –
COCCCNS(=O)(=O)c1ccc2nc(-c3ccc(F)cc3)c(-c3ccc(F)cc3)nc2c1 [BC19554] | < 100 | > 10000 | – | –

SMILES | IC50 (NF-κB; LPS-stimulated) [nM] | IC50 (TNF release; [1]) [nM] | IC50 (NF-κB; [2]) [nM] | IC50 (TNF release; [3]) [nM]
CN(C)CCNS(=O)(=O)c1ccc2nc(-c3ccc(F)cc3)c(-c3ccc(F)cc3)nc2c1 [BC19555] | < 100 | 1000 to 10000 | – | –
CCNS(=O)(=O)c1ccc2nc(-c3ccc(F)cc3)c(-c3ccc(F)cc3)nc2c1 [BC19556] | 100 to 1000 | > 10000 | – | –
O=C1CCCN1CCCNS(=O)(=O)c1ccc2nc(-c3ccc(F)cc3)c(-c3ccc(F)cc3)nc2c1 [BC19560] | < 100 | > 10000 | – | –
Cc1ccc(-c2nc3ccc(S(=O)(=O)NCCCN4CCN(C)CC4)cc3nc2-c2ccc(C)cc2)cc1 [BC19561] | 100 to 1000 | > 10000 | – | –
CN(C)CCNC(=O)Nc1ccc2nc(-c3ccc(F)cc3)c(-c3ccc(F)cc3)nc2c1 [BC19564] | < 100 | 1000 to 10000 | – | –
COCCNC(=O)Nc1ccc2nc(-c3ccc(F)cc3)c(-c3ccc(F)cc3)nc2c1 [BC19565] | < 100 | > 10000 | – | –
O=C(NCCO)Nc1ccc2nc(-c3ccc(F)cc3)c(-c3ccc(F)cc3)nc2c1 [BC19566] | < 100 | > 10000 | – | –
O=C(NCCN1CCOCC1)Nc1ccc2nc(-c3ccc(F)cc3)c(-c3ccc(F)cc3)nc2c1 [BC19567] | 100 to 1000 | 1000 to 10000 | – | –
O=C(Nc1ccc2nc(-c3ccc(F)cc3)c(-c3ccc(F)cc3)nc2c1)NC1CC1 [BC19568] | 100 to 1000 | > 10000 | – | –
O=C(NCc1cccnc1)Nc1ccc2nc(-c3ccc(F)cc3)c(-c3ccc(F)cc3)nc2c1 [BC19571] | 100 to 1000 | 1000 to 10000 | – | –
O=C(NCc1ccncc1)Nc1ccc2nc(-c3ccc(F)cc3)c(-c3ccc(F)cc3)nc2c1 [BC19572] | 100 to 1000 | > 10000 | – | –
CN(C)CCCNC(=O)Nc1ccc2nc(-c3ccc(F)cc3)c(-c3ccc(F)cc3)nc2c1 [BC19573] | 100 to 1000 | 100 to 1000 | – | –
COCCCNC(=O)Nc1ccc2nc(-c3ccc(F)cc3)c(-c3ccc(F)cc3)nc2c1 [BC19574] | 100 to 1000 | > 10000 | – | –
O=c1[nH]ccc2cc(S(=O)(=O)c3ccccc3)ccc12 [BC19579] | – | – | > 10000 | > 10000
O=c1[nH]ccc2cc(Sc3ccc(F)cc3)ccc12 [BC19580] | – | – | > 10000 | > 10000
CC(C)S(=O)(=O)c1[nH]c(-c2ccccc2)nc1S(=O)(=O)c1ccc(F)cc1 [BC19581] | > 10000 | > 10000 | – | –
CC(C)C[S+]([O-])c1[nH]c(-c2ccccc2)nc1S(=O)(=O)c1ccc(F)cc1 (stereo not shown) [BC19582] | 1000 to 10000 | > 10000 | – | –
O=S(=O)(c1ccc(Cl)cc1)c1nc(-c2cccc(F)c2)sc1S(=O)(=O)C1CCCCC1 [BC19583] | > 10000 | > 10000 | – | –
CC(C)[S+]([O-])c1[nH]c(-c2ccccc2)nc1S(=O)(=O)c1ccc(Cl)cc1 (stereo not shown) [BC19584] | 1000 to 10000 | > 10000 | – | –
CCC[S+]([O-])c1[nH]c(-c2ccccc2)nc1S(=O)(=O)c1ccc(F)cc1 (stereo not shown) [BC19585] | 1000 to 10000 | > 10000 | – | –
O=S(=O)(c1ccc(F)cc1)c1nc(-c2ccccc2)[nH]c1[S+]([O-])C1CCCCC1 (stereo not shown) [BC19586] | 1000 to 10000 | > 10000 | – | –
COCCS(=O)(=O)c1sc(-c2cccc(F)c2)nc1S(=O)(=O)c1ccc(F)cc1 [BC19587] | 1000 to 10000 | 1000 to 10000 | – | –

Continued, values first:

IC50 (NF-κB; LPS-stimulated) [nM] | IC50 (TNF release; [1]) [nM] | IC50 (NF-κB; [2]) [nM] | IC50 (TNF release; [3]) [nM] | SMILES
> 10000 | > 10000 | – | – | COCC[S+]([O-])c1[nH]c(-c2ccccc2)nc1S(=O)(=O)c1ccc(F)cc1 (stereo not shown) [BC19524]
1000 to 10000 | 100 to 1000 | – | – | C[S+]([O-])c1sc(-c2ccc(Cl)cc2)nc1S(=O)(=O)c1ccc(Cl)cc1 (stereo not shown) [BC19528]
> 10000 | 1000 to 10000 | – | – | CC(C)CS(=O)(=O)c1sc(-c2ccc(Cl)cc2)nc1S(=O)(=O)c1ccc(Cl)cc1 [BC19529]
1000 to 10000 | 1000 to 10000 | – | – | CCC[S+]([O-])c1sc(-c2ccc(Cl)cc2)nc1S(=O)(=O)c1ccc(Cl)cc1 (stereo not shown) [BC19533]
1000 to 10000 | 1000 to 10000 | – | – | COCCS(=O)(=O)c1sc(-c2ccc(Cl)cc2)nc1S(=O)(=O)c1ccc(F)cc1 [BC19541]
100 to 1000 | < 100 | – | – | Cc1ccc(S(=O)(=O)c2nc(S(=O)(=O)C(C)C)sc2S(=O)(=O)C(C)C)cc1 [BC19543]
– | – | 100 to 1000 | > 10000 | CCS(=O)(=O)c1cc2c(c(S(=O)(=O)Nc3ccc(OC)c(Cl)c3)c1)OCC(=O)N2 [BC19547]
1000 to 10000 | > 10000 | – | – | O=C1NCCOc2c1cc(Br)cc2S(=O)(=O)Nc1ccc(F)cc1 [BC19549]
1000 to 10000 | > 10000 | – | – | O=C1NCCOc2c1cc(Br)cc2S(=O)(=O)Nc1ccccc1 [BC19553]
< 100 | > 10000 | – | – | O=S(=O)(NCc1cccnc1)c1ccc2nc(-c3ccc(F)cc3)c(-c3ccc(F)cc3)nc2c1 [BC19557]
100 to 1000 | > 10000 | – | – | O=S(=O)(NCc1ccncc1)c1ccc2nc(-c3ccc(F)cc3)c(-c3ccc(F)cc3)nc2c1 [BC19558]
< 100 | > 10000 | – | – | O=S(=O)(NCc1ccccn1)c1ccc2nc(-c3ccc(F)cc3)c(-c3ccc(F)cc3)nc2c1 [BC19559]
100 to 1000 | 1000 to 10000 | – | – | CN(C)CCCNS(=O)(=O)c1ccc2nc(-c3ccc(F)cc3)c(-c3ccc(F)cc3)nc2c1 [BC19562]
< 100 | > 10000 | – | – | CCNC(=O)Nc1ccc2nc(-c3ccc(F)cc3)c(-c3ccc(F)cc3)nc2c1 [BC19563]
100 to 1000 | > 10000 | – | – | O=C(NCC1CC1)Nc1ccc2nc(-c3ccc(F)cc3)c(-c3ccc(F)cc3)nc2c1 [BC19569]
100 to 1000 | > 10000 | – | – | O=C(NCc1ccccn1)Nc1ccc2nc(-c3ccc(F)cc3)c(-c3ccc(F)cc3)nc2c1 [BC19570]
100 to 1000 | > 10000 | – | – | O=C(NCCCO)Nc1ccc2nc(-c3ccc(F)cc3)c(-c3ccc(F)cc3)nc2c1 [BC19575]
100 to 1000 | > 10000 | – | – | O=C(NCCCN1CCOCC1)Nc1ccc2nc(-c3ccc(F)cc3)c(-c3ccc(F)cc3)nc2c1 [BC19576]
100 to 1000 | > 10000 | – | – | CN1CCN(Cc2ccc3nc(-c4ccc(F)cc4)c(-c4ccc(F)cc4)nc3c2)CC1 [BC19577]
> 10000 | > 10000 | – | – | CN1CCN(C(=O)c2ccc3nc(-c4ccc(F)cc4)c(Nc4ccc(F)cc4)nc3c2)CC1 [BC19578]
